Test results as given in patent EP0516157A1, “Preparation of 6-0-alkylelsamicin A derivatives” (priority 1991, dated 1992).
Where two headings read alike, the source gives them in different places.

Assays:
[1] = tested on: murine melanoma B16-F10 cells; assay: In vitro cytotoxicity, neutral red staining after 72 hours; details: for Cytotoxicity IC50: 72 hours incubation
Protocol: (§2) For in vitro cytotoxicity experiment, murine melanoma B16-F10 cells were grown and maintained in Eagle's minimum essential medium (Nissui), which contains kanamycin (60 µg/ml), supplemented with heat-inactivated fetal calf serum (10%) and nonessential amino acids (0.6%) at 37°C under a humidified atmosphere in a 5% CO₂ incubator. Exponentially growing B16-F10 cells were harvested, counted and suspended in the culture medium at the concentration of 2.0x10⁴ cells/ml. The cell suspension (180 µl) was planted into wells of a 96-well microtiter plate and incubated for 24 hours. Test compounds (20 µl) were added to the wells and the plates were further incubated for 72 hours. The cytotoxic activity was colorimetrically determined at 540 nm after staining viable cells with neutral red solution.

[2] = tested on: melanoma B16; assay: In vivo antitumor activity against B16 melanoma in mice; details: for No. of survivors/tested on day 50 / T/C % of MST: Q4Dx3 ip; for T/C % of MST: B16, male BDF1 mice
Protocol: (§1) In vivo antitumor activity of the above fifteen derivatives was tested in the lymphocytic leukemia P388 and melanoma B16 systems. Female CDF₁ (for P388) and male BDF₁ (for B16) mice were inoculated by ip injection at 10⁶ P388 cells and 0.5 ml of a 10% B16 brei per mouse, respectively (day 0). […] The percent increase of median survival time (MST) of treated animals over that of untreated control animals was determined and reported as T/C %. Compounds showing T/C % values of 125 or greater are considered to have significant antitumor activity.

[3] = tested on: lymphocytic leukemia P388; assay: In vivo antitumor activity against P388 leukemia in mice; details: for T/C % of MST: P388, female CDF1 mice, Q1Dx3 ip; for anti-P388 activity compared with elsamicin A / toxicity compared with elsamicin A: P388 system, in words
Protocol: as §1

[4] = tested on: murine melanoma B16-F10 cells
Protocol: as §2

SMILES | Cytotoxicity IC50 [1] [µg/mL] | No. of survivors/tested on day 50 ([2]; B16, 10 mg/kg/day) | T/C % of MST ([2]; 0.1 mg/kg/day) [%] | T/C % of MST ([2]; 0.3 mg/kg/day) [%] | T/C % of MST ([2]; 1 mg/kg/day) [%] | T/C % of MST ([2]; 3 mg/kg/day) [%] | T/C % of MST ([2]; 10 mg/kg/day) | chemotherapeutic activity in the B16 system ([2]; B16 system, in words) | cytotoxicity compared with the parent compound ([1]; in words, versus elsamicin A) | T/C % of MST ([3]; 0.1 mg/kg/day) [%] | T/C % of MST ([3]; 0.3 mg/kg/day) [%] | T/C % of MST ([3]; 1 mg/kg/day) [%] | T/C % of MST ([3]; 3 mg/kg/day) [%] | T/C % of MST ([3]; 10 mg/kg/day) [%] | T/C % of MST ([3]; 20 mg/kg/day) | T/C % of MST ([3]; 40 mg/kg/day) [%] | anti-P388 activity compared with elsamicin A [3] | toxicity compared with elsamicin A [3] | cytotoxicity compared with the parent compound [4] | No. of survivors/tested on day 50 ([2]; B16, 3 mg/kg/day)
COc1c2cccc(OC3OC(C)C(O)C(C)(O)C3OC3OC(C)C(O)C(OC)C3N)c2c2oc(=O)c3c(C)ccc4oc(=O)c1c2c43 (centres unmarked) [Compound 7a, 6-O-Methylelsamicin A] | 0.19 |  |  |  |  |  |  |  |  |  |  |  |  |  |  |  |  |  |  | 
CCOc1c2cccc(OC3OC(C)C(O)C(C)(O)C3OC3OC(C)C(O)C(OC)C3N)c2c2oc(=O)c3c(C)ccc4oc(=O)c1c2c43 (centres unmarked) [Compound 7b, 6-O-Ethylelsamicin A] | 0.06 | (3/4) | 103 | 113 | 144 | 178 | ≧313% | excellent chemotherapeutic activity | approximately equipotent cytotoxicity to the parent compound | 110 | 125 | 130 | 150 | 170 | 170% | 180 | as active as elsamicin A | seemed to be less toxic |  | 
CCCOc1c2cccc(OC3OC(C)C(O)C(C)(O)C3OC3OC(C)C(O)C(OC)C3N)c2c2oc(=O)c3c(C)ccc4oc(=O)c1c2c43 (centres unmarked) [Compound 7c, 6-O-n-Propylelsamicin A] | 0.03 |  |  |  |  |  |  |  |  | 105 | 129 | 133 | 152 | 152 | 155% | 159 | as active as elsamicin A | seemed to be less toxic | approximately equipotent cytotoxicity to the parent compound | 
COC1C(N)C(OC2C(Oc3cccc4c(OC(C)C)c5c(=O)oc6ccc(C)c7c(=O)oc(c34)c5c67)OC(C)C(O)C2(C)O)OC(C)C1O (centres unmarked) [Compound 7d, 6-O-Isopropylelsamicin A] | 0.49 |  |  |  |  |  |  |  |  | 95 | 119 | 124 | 133 | 148 |  |  |  |  |  | 
CCCCOc1c2cccc(OC3OC(C)C(O)C(C)(O)C3OC3OC(C)C(O)C(OC)C3N)c2c2oc(=O)c3c(C)ccc4oc(=O)c1c2c43 (centres unmarked) [Compound 7e, 6-O-n-Butylelsamicin A] | 0.03 |  |  | 123 | 127 | 160 | 213% |  |  | 110 | 124 | 133 | 152 | 162 | 141% | 164 | as active as elsamicin A | seemed to be less toxic | approximately equipotent cytotoxicity to the parent compound | 
CCCCCCOc1c2cccc(OC3OC(C)C(O)C(C)(O)C3OC3OC(C)C(O)C(OC)C3N)c2c2oc(=O)c3c(C)ccc4oc(=O)c1c2c43 (centres unmarked) [Compound 7f, 6-O-n-Hexylelsamicin A] | 0.11 |  | 107 | 111 | 129 | 132 | 146% |  |  | 100 | 105 | 120 | 130 | 140 |  |  |  |  |  | 
CCCCCCCCCCOc1c2cccc(OC3OC(C)C(O)C(C)(O)C3OC3OC(C)C(O)C(OC)C3N)c2c2oc(=O)c3c(C)ccc4oc(=O)c1c2c43 (centres unmarked) [Compound 7g, 6-O-n-Decylelsamicin A] | 2.5 |  |  | 107 | 126 | 153 | 183% |  |  |  | 115 | 105 | 115 | 100 |  |  |  |  |  | 
COC1C(N)C(OC2C(Oc3cccc4c(OCCCN5C(=O)c6ccccc6C5=O)c5c(=O)oc6ccc(C)c7c(=O)oc(c34)c5c67)OC(C)C(O)C2(C)O)OC(C)C1O (centres unmarked) [Compound 7h, 6-O-(3-phthalimidopropyl)elsamicin A] | 0.71 |  |  |  |  |  |  |  |  | 105 | 105 | 120 | 125 | 140 |  |  |  |  |  | 
COC1C(N)C(OC2C(Oc3cccc4c(OCCCN)c5c(=O)oc6ccc(C)c7c(=O)oc(c34)c5c67)OC(C)C(O)C2(C)O)OC(C)C1O (centres unmarked) [Compound 7i, 6-O-(3-Aminopropyl)elsamicin A] | 2.3 |  |  |  |  |  |  |  |  |  | 105 | 110 | 110 | 130 |  |  |  |  |  | 
COc1c2cccc(OC3OC(C)C4OC(C)(C)OC4(C)C3OC3OC(C)C(O)C(OC)C3N)c2c2oc(=O)c3c(C)ccc4oc(=O)c1c2c43 (centres unmarked) [Compound 8a, 3',4'-O-Isopropylidene-6-O-methylelsamicin A] | 0.08 |  |  |  |  |  |  |  |  |  |  |  |  |  |  |  |  |  |  | 
CCOc1c2cccc(OC3OC(C)C4OC(C)(C)OC4(C)C3OC3OC(C)C(O)C(OC)C3N)c2c2oc(=O)c3c(C)ccc4oc(=O)c1c2c43 (centres unmarked) [Compound 8b, 6-O-Ethyl-3'4'-O-isopropylideneelsamicin A] | 0.06 |  | 97 | 106 | 119 | 153 | 216% |  |  | 110 | 125 | 125 | 140 | 190 | 200% |  | as active as elsamicin A | seemed to be less toxic | approximately equipotent cytotoxicity to the parent compound | 
CCCCCCOc1c2cccc(OC3OC(C)C4OC(C)(C)OC4(C)C3OC3OC(C)C(O)C(OC)C3N)c2c2oc(=O)c3c(C)ccc4oc(=O)c1c2c43 (centres unmarked) [Compound 8f, 6-O-n-Hexyl-3'4'-O-isopropylideneelsamicin A] | 0.9 |  |  |  |  |  |  |  |  | 110 | 110 | 110 | 115 | 120 |  |  |  |  |  | 
CCCCCCCCCCOc1c2cccc(OC3OC(C)C4OC(C)(C)OC4(C)C3OC3OC(C)C(O)C(OC)C3N)c2c2oc(=O)c3c(C)ccc4oc(=O)c1c2c43 (centres unmarked) [Compound 8g, 6-O-n-Decyl-3'4'-O-isopropylideneelsamicin A] | 2.9 |  |  |  |  |  |  |  |  |  | 115 | 105 | 115 | 100 |  |  |  |  |  | 
COC1C(N)C(OC2C(Oc3cccc4c(OCCCN5C(=O)c6ccccc6C5=O)c5c(=O)oc6ccc(C)c7c(=O)oc(c34)c5c67)OC(C)C3OC(C)(C)OC32C)OC(C)C1O (centres unmarked) [Compound 8h, 3'4'-O-Isopropylidene-6-O-(3-phthalimidopropyl)elsamicin A] | 0.4 |  |  |  |  |  |  |  |  | 100 | 110 | 110 | 120 | 130 |  |  |  |  |  | 
COC1C(N)C(OC2C(Oc3cccc4c(OCCCN)c5c(=O)oc6ccc(C)c7c(=O)oc(c34)c5c67)OC(C)C3OC(C)(C)OC32C)OC(C)C1O (centres unmarked) [Compound 8i, 6-O-(3-Aminopropyl)-3',4'-isopropylideneelsamicin A] | 1.8 |  |  |  |  |  |  |  |  |  | 105 | 110 | 120 | 135 |  |  |  |  |  | 
COC1C(N)C(OC2C(Oc3cccc4c(O)c5c(=O)oc6ccc(C)c7c(=O)oc(c34)c5c67)OC(C)C(O)C2(C)O)OC(C)C1O (centres unmarked) [Elsamicin A (1), Elsamicin A] | 0.05 | 9/24 | 120 | 139 | 178 | ≥ 216 | ≥ 305% |  |  | 124 | 138 | 155 | 180 | 206 | Tox |  |  |  |  | 2/24
